The values that follow are results of earlier work, collected in US20070237796A1, “Stable High Pl Hydrogel Compositions” (priority 2003, published 2007).

Conditions in the first data set: not given
Consider `O=C[C@H](O)[C@@H](O)[C@@H](O)[C@H](O)CO` [Galactose], for which the pKa is given as 12.39.

Consider `OC[C@H]1O[C@@H](O[C@H]2[C@H](O)[C@@H](O)C(O)O[C@@H]2CO)[C@H](O)[C@@H](O)[C@H]1O` (stereo partly drawn) [Lactose], for which the pKa is listed as 11.98.

In the case of `O=C[C@H](O)[C@@H](O)[C@H](O)CO` [Xylose], the pKa is 12.15.

As to `CO[C@H]1O[C@H](CO)[C@@H](O)[C@H](O)[C@H]1O` [α-Methyl glucoside], the pKa is 13.71.

Staying with this data set, now noted: secondary OH.
Turning to `OC[C@H]1O[C@@H]2O[C@H]3[C@H](O)[C@@H](O)[C@@H](O[C@H]4[C@H](O)[C@@H](O)[C@@H](O[C@H]5[C@H](O)[C@@H](O)[C@@H](O[C@H]6[C@H](O)[C@@H](O)[C@@H](O[C@H]7[C@H](O)[C@@H](O)[C@@H](O[C@H]8[C@H](O)[C@@H](O)[C@@H](O[C@H]1[C@H](O)[C@H]2O)O[C@@H]8CO)O[C@@H]7CO)O[C@@H]6CO)O[C@@H]5CO)O[C@@H]4CO)O[C@@H]3CO` [β-cyclodextrin], the pKa is 12.20 (secondary OH).

For the molecule `OC[C@H]1O[C@@H]2O[C@H]3[C@H](O)[C@@H](O)[C@@H](O[C@H]4[C@H](O)[C@@H](O)[C@@H](O[C@H]5[C@H](O)[C@@H](O)[C@@H](O[C@H]6[C@H](O)[C@@H](O)[C@@H](O[C@H]7[C@H](O)[C@@H](O)[C@@H](O[C@H]8[C@H](O)[C@@H](O)[C@@H](O[C@H]9[C@H](O)[C@@H](O)[C@@H](O[C@H]1[C@H](O)[C@H]2O)O[C@@H]9CO)O[C@@H]8CO)O[C@@H]7CO)O[C@@H]6CO)O[C@@H]5CO)O[C@@H]4CO)O[C@@H]3CO` [γ-cyclodextrin], the pKa is 12.05 (secondary OH).
